# In PubChem BioAssay AID330 (DTP/NCI, 2004):
# Where “and” joins values, the source holds several entries; their conditions need not be identical. Equal values may be shown once. Toxic doses and inconclusive results are not listed.
# Test system: P388 leukemia ip, CD2F1 mice, survival T/C
# Experiment: NCI In Vivo Anticancer Drug Screen. Data for tumor model P388 Leukemia (intraperitoneal) in CD2F1 (CDF1) mice
# Settings: endpoint: median survival time, higher = longer survival
# Method in brief: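 Mice carrying the transplanted tumor received test compound or vehicle. Survival was recorded in each group, and the value is the treated-group measurement divided by that of the vehicle-treated control group.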
# [1] = dose: 12.5 mg/kg/injection, schedule: Q04DX003 (ip), vehicle: Klucel (hydroxypropylcellulose) (HPC)
# [2] = dose: 25.0 mg/kg/injection, schedule: Q04DX003 (ip), vehicle: Klucel (hydroxypropylcellulose) (HPC)
# [3] = dose: 15.0 mg/kg/injection, schedule: Q01DX005 (ip), vehicle: saline with Tween-80
# [4] = dose: 60.0 mg/kg/injection, schedule: Q01DX005 (ip), vehicle: saline with Tween-80
# [5] = dose: 25.0 mg/kg/injection, schedule: Q01DX009 (ip), vehicle: saline with Tween-80
# [6] = dose: 50.0 mg/kg/injection, schedule: Q01DX009 (ip), vehicle: saline with Tween-80
# [7] = dose: 100.0 mg/kg/injection, schedule: Q01DX009 (ip), vehicle: saline with Tween-80
# [8] = dose: 100.0 mg/kg/injection, schedule: Q04DX002 (ip), vehicle: saline with Tween-80
# [9] = dose: 200.0 mg/kg/injection, schedule: Q01DX009 (ip), vehicle: saline with Tween-80
# [10] = dose: 50.0 mg/kg/injection, schedule: Q01DX005 (ip), vehicle: Klucel (hydroxypropylcellulose) (HPC)
# [11] = dose: 100.0 mg/kg/injection, schedule: Q04DX003 (ip), vehicle: saline with Tween-80
# [12] = dose: 200.0 mg/kg/injection, schedule: Q04DX003 (ip), vehicle: saline with Tween-80
# [13] = dose: 400.0 mg/kg/injection, schedule: Q04DX003 (ip), vehicle: saline with Tween-80
# [14] = dose: 50.0 mg/kg/injection, schedule: Q01DX005 (ip), vehicle: saline
# [15] = dose: 100.0 mg/kg/injection, schedule: Q01DX005 (ip), vehicle: saline
# [16] = dose: 200.0 mg/kg/injection, schedule: Q01DX005 (ip), vehicle: saline
# [17] = dose: 50.0 mg/kg/injection, schedule: Q01DX005 (ip), vehicle: saline with Tween-80
# [18] = dose: 100.0 mg/kg/injection, schedule: Q01DX005 (ip), vehicle: saline with Tween-80
# [19] = dose: 200.0 mg/kg/injection, schedule: Q01DX005 (ip), vehicle: saline with Tween-80
structure (smiles),measurement,setting,value
NNc1nnnc2c1sc1ccccc12,T/C,"dose: 100.0 mg/kg/injection, schedule: Q01DX001 (ip), vehicle: saline with Tween-80",89 % of control
same,T/C,"dose: 400.0 mg/kg/injection, schedule: Q01DX001 (ip), vehicle: saline with Tween-80",93 % of control
NC(=S)N/N=C/c1ccccc1,T/C,[1],116 % of control
same,T/C,[2],109 % of control
Cc1ccc(NC(=O)/C(Cl)=C(\Cl)C(=O)O)cc1C,T/C,"dose: 3.75 mg/kg/injection, schedule: Q01DX005 (ip), vehicle: saline with Tween-80",96 % of control
same,T/C,"dose: 7.5 mg/kg/injection, schedule: Q01DX005 (ip), vehicle: saline with Tween-80",102 % of control
same,T/C,[3],103 % of control and 110 % of control
same,T/C,[4],104 % of control
CCCC(OC(C)=O)c1coc(C)c1 (stereo unspecified),T/C,"dose: 100.0 mg/kg/injection, schedule: Q01DX001 (ip), vehicle: saline",104 % of control
same,T/C,"dose: 200.0 mg/kg/injection, schedule: Q01DX001 (ip), vehicle: saline",100 % of control
same,T/C,"dose: 400.0 mg/kg/injection, schedule: Q01DX001 (ip), vehicle: saline",104 % of control
O=C1OCCOCCSCCOCCOC(=O)c2cccc1n2,T/C,"dose: 100.0 mg/kg/injection, schedule: Q04DX003 (ip), vehicle: Klucel (hydroxypropylcellulose) (HPC)",101 % of control
same,T/C,"dose: 200.0 mg/kg/injection, schedule: Q04DX003 (ip), vehicle: Klucel (hydroxypropylcellulose) (HPC)",102 % of control
same,T/C,"dose: 400.0 mg/kg/injection, schedule: Q04DX003 (ip), vehicle: Klucel (hydroxypropylcellulose) (HPC)",100 % of control
CCS(=O)(=O)Nc1cccc(Nc2c3cccc(C)c3nc3c(C)cccc23)c1OC,T/C,"dose: 0.7 mg/kg/injection, schedule: Q01DX009 (ip), vehicle: saline with Tween-80",121 % of control
same,T/C,"dose: 5.5 mg/kg/injection, schedule: Q01DX009 (ip), vehicle: saline with Tween-80",157 % of control
same,T/C,"dose: 6.25 mg/kg/injection, schedule: Q01DX009 (ip), vehicle: saline with Tween-80",171 % of control
same,T/C,"dose: 11.0 mg/kg/injection, schedule: Q01DX009 (ip), vehicle: saline with Tween-80",172 % of control and 217 % of control
same,T/C,"dose: 12.5 mg/kg/injection, schedule: Q01DX009 (ip), vehicle: saline with Tween-80",177 % of control
same,T/C,"dose: 16.7 mg/kg/injection, schedule: Q01DX009 (ip), vehicle: saline with Tween-80",220 % of control
same,T/C,[5],155 % of control and 266 % of control
same,T/C,"dose: 37.5 mg/kg/injection, schedule: Q01DX009 (ip), vehicle: saline with Tween-80",86 % of control
same,T/C,[6],91 % of control
Cn1c(O)c(N=O)c(=O)[nH]c1=O,T/C,[6],95 % of control
same,T/C,[7],99 % of control
same,T/C,[8],100 % of control
same,T/C,[9],87 % of control
CSC1=NCc2c(sc3c2CCCC3)N1,T/C,[10],100 % of control
same,T/C,"dose: 100.0 mg/kg/injection, schedule: Q01DX005 (ip), vehicle: Klucel (hydroxypropylcellulose) (HPC)",106 % of control
same,T/C,"dose: 200.0 mg/kg/injection, schedule: Q01DX005 (ip), vehicle: Klucel (hydroxypropylcellulose) (HPC)",98 % of control
COC(=O)c1ccccc1NC(=NC(C)(C)C)c1ccccc1,T/C,[6],98 % of control
same,T/C,[7],98 % of control
same,T/C,[9],91 % of control
CC1(C)CCC2=C1CC[C@H]1[C@H]2CCC2=CC(=O)CC[C@@]21C,T/C,[7],90 % of control
same,T/C,[11],110 % of control
same,T/C,[9],100 % of control
same,T/C,[12],105 % of control
same,T/C,[13],115 % of control
CC1=C2C(=O)[C@H]3[C@@H](CC=C4C[C@@H](O)CC[C@@]43C)[C@@H]2CC[C@]12O[C@@H]1C[C@H](C)CN[C@H]1[C@H]2C,T/C,[5],98 % of control
same,T/C,[6],92 % of control
same,T/C,[7],92 % of control
C=CCCCC(C#N)c1ccc2c(c1)OCO2 (stereo unspecified),T/C,[14],105 % of control
same,T/C,[15],105 % of control
same,T/C,[16],101 % of control
CC1=CC(C)CN(C)C1 (stereo unspecified),T/C,"dose: 6.25 mg/kg/injection, schedule: Q01DX005 (ip), vehicle: saline",102 % of control
same,T/C,"dose: 12.5 mg/kg/injection, schedule: Q01DX005 (ip), vehicle: saline",100 % of control
same,T/C,"dose: 25.0 mg/kg/injection, schedule: Q01DX005 (ip), vehicle: saline",105 % of control
CC(Cl)S(N)(=O)=O (stereo unspecified),T/C,[14],105 % of control
same,T/C,[15],98 % of control
same,T/C,[16],105 % of control
COc1ccc(B2OCCO2)cc1,T/C,[17],100 % of control
same,T/C,[18],97 % of control
same,T/C,[19],101 % of control
Oc1c(Br)cc(Br)c2ccccc12,T/C,[7],105 % of control
same,T/C,[9],114 % of control
same,T/C,"dose: 400.0 mg/kg/injection, schedule: Q01DX009 (ip), vehicle: saline with Tween-80",111 % of control
NC(CCS)C(=O)O (stereo unspecified),T/C,[17],90 % of control
same,T/C,[18],92 % of control
C=C1CCOC1=O,T/C,"dose: 50.0 mg/kg/injection, schedule: Q04DX002 (ip), vehicle: saline with Tween-80",97 % of control
same,T/C,[8],105 % of control
same,T/C,"dose: 200.0 mg/kg/injection, schedule: Q04DX002 (ip), vehicle: saline with Tween-80",105 % of control
Clc1nn2ccnc2c2cccnc12,T/C,[1],100 % of control
same,T/C,[2],103 % of control
COc1ccc2c(ccc3oc([N+](=O)[O-])cc32)c1,T/C,[10],116 % of control
COc1ccc(CC(=O)NCCc2ccc3cc(OC)c(OC)cc3c2)cc1OC,T/C,[11],100 % of control
same,T/C,[12],100 % of control
same,T/C,[13],100 % of control
NC(CC1C=CCCC1)C(=O)O (stereo unspecified),T/C,"dose: 60.0 mg/kg/injection, schedule: Q01DX005 (ip), vehicle: Klucel (hydroxypropylcellulose) (HPC)",98 % of control
same,T/C,"dose: 120.0 mg/kg/injection, schedule: Q01DX005 (ip), vehicle: Klucel (hydroxypropylcellulose) (HPC)",98 % of control
same,T/C,"dose: 240.0 mg/kg/injection, schedule: Q01DX005 (ip), vehicle: Klucel (hydroxypropylcellulose) (HPC)",95 % of control
CCC[As](=O)(O)CCC,T/C,"dose: 20.0 mg/kg/injection, schedule: Q01DX009 (ip), vehicle: saline",100 % of control
same,T/C,"dose: 25.0 mg/kg/injection, schedule: Q04DX003 (ip), vehicle: saline",86 % of control
same,T/C,"dose: 30.0 mg/kg/injection, schedule: Q01DX009 (ip), vehicle: saline",100 % of control
same,T/C,"dose: 45.0 mg/kg/injection, schedule: Q01DX009 (ip), vehicle: saline",113 % of control
same,T/C,"dose: 50.0 mg/kg/injection, schedule: Q04DX003 (ip), vehicle: saline",109 % of control
same,T/C,"dose: 100.0 mg/kg/injection, schedule: Q04DX003 (ip), vehicle: saline",90 % of control
O=c1/c(=C/C=C/c2ccccc2)sc2nc3ccccc3n12,T/C,[17],107 % of control
same,T/C,[18],106 % of control
same,T/C,[19],92 % of control
C=C1C(=O)OC2/C=C(\C)CC/C=C(/C)CC(OC(=O)/C(=C/CO)CO)C12 (stereo unspecified),T/C,"dose: 5.0 mg/kg/injection, schedule: Q01DX009 (ip), vehicle: Klucel (hydroxypropylcellulose) (HPC)",108 % of control and 113 % of control
same,T/C,"dose: 10.0 mg/kg/injection, schedule: Q01DX009 (ip), vehicle: Klucel (hydroxypropylcellulose) (HPC)",106 % of control and 115 % of control (2×)
same,T/C,"dose: 20.0 mg/kg/injection, schedule: Q01DX009 (ip), vehicle: Klucel (hydroxypropylcellulose) (HPC)",106 % of control and 117 % of control
same,T/C,"dose: 40.0 mg/kg/injection, schedule: Q01DX009 (ip), vehicle: Klucel (hydroxypropylcellulose) (HPC)",113 % of control and 117 % of control and 89 % of control
CN(C)c1ncnc2c1ncn2CC(O)CN (stereo unspecified),T/C,"dose: 50.0 mg/kg/injection, schedule: Q01DX005 (ip), vehicle: distilled water + alcohol",100 % of control
same,T/C,"dose: 100.0 mg/kg/injection, schedule: Q01DX005 (ip), vehicle: distilled water + alcohol",103 % of control
same,T/C,"dose: 200.0 mg/kg/injection, schedule: Q01DX005 (ip), vehicle: distilled water + alcohol",96 % of control
CC(O)CN=Cc1ccccc1[O-].CC(O)CN=Cc1ccccc1[O-].[Cu+2] (stereo unspecified),T/C,[3],95 % of control
same,T/C,"dose: 30.0 mg/kg/injection, schedule: Q01DX005 (ip), vehicle: saline with Tween-80",94 % of control
same,T/C,[4],101 % of control and 89 % of control
CC(=O)Nc1cc2cc(NC=C(C#N)C#N)ccc2oc1=O,T/C,"dose: 60.0 mg/kg/injection, schedule: Q01DX005 (ip), vehicle: Klucel + Tween-80",96 % of control
same,T/C,"dose: 120.0 mg/kg/injection, schedule: Q01DX005 (ip), vehicle: Klucel + Tween-80",92 % of control
